What all share (type): cell-based
In assay [1] the test system is NCI-H524 human small cell lung cancer cells. In words: H524 assay: inhibition of cell proliferation (CellTiter Glo). The note with it: 2 h treatment, washout, additional 70 h incubation. Summed up: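 NCI-H524 cells were exposed for 2 h to NDC in an 11-point two-fold series starting at 1 uM. The drug was then washed out and cells grew a further 70 h. CellTiter Glo luminescence gave % inhibition versus untreated control, and IC50 came from a four-parameter nonlinear regression.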
(In ATP-based viability assays light output follows the ATP content of the culture.)

The target of assay [2] is T1, human somatostatin receptor subtype 2 (Homo sapiens, UniProt P30874).
T1 construct: expressed in transfected cells
In words: Functional assay for SSTR2 agonists (HTRF cAMP). The note with it: CHO-K1 cells stably expressing human SST2; NKH477-stimulated cAMP; 20 min at 37 C; read-out: hSST2 cAMP Avg EC50. A digest of the protocol:
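CHO-K1 cells stably expressing human SSTR2 treated with compound (typically 0-10,000 nM final) for 20 min at 37 °C. Lysate cAMP measured by HTRF (665/620 nm ratio), converted via standard curve; EC50 from cAMP vs concentration.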
For orientation: In TR-FRET formats the signal depends on donor and acceptor labels being close together.

The target of another assay is T2, SST2 (Homo sapiens, UniProt P30874).
T2 construct: host or cells: PathHunter CHO-K1 SST2 cells
Nature of the assay: PathHunter CHO-K1 SST2 Internalization Assay. The following applies: PathHunter CHO-K1 SST2 cells; 90 min at 37 C; luminescence; read-out: Internalization EC50. A digest of the protocol: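 CHO-K1 cells expressing human SST2, 2500 cells/well, grown 48 h, then exposed 90 min at 37 C to 11-point 1:3 NDC dilutions (final top 10 uM). Beta-Glo luminescence after 60 min at room temperature; four-parameter IC50, duplicate mean, background-corrected.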

The values below come from patent US20260007758A1, “SO[…]-2 RECEPTOR (SST2R) NON-PEPTIDE DRUG CONJUGATES AND USES THEREOF” (Crinetics Pharmaceuticals, Inc., priority 2024, published 2026).

For orientation: EC50 means the concentration that produces a half-maximal response.

T1 sequence (P30874 whole entry): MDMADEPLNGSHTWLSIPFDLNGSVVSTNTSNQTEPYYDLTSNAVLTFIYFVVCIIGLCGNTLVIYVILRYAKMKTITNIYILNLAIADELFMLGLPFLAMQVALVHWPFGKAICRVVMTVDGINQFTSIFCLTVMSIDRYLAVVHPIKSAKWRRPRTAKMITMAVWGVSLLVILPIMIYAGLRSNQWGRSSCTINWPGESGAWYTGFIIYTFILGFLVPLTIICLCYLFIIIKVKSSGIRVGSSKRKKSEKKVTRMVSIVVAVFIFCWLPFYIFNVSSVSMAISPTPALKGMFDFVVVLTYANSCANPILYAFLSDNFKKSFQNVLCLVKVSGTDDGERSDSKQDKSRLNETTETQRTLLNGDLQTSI
T2 sequence (P30874 whole entry): as above

With `CC[C@H](C)[C@@H]([C@@H](CC(=O)N1CCC[C@H]1[C@H](OC)[C@@H](C)C(=O)N[C@H](C)[C@@H](O)c1ccccc1)OC)N(C)C(=O)[C@@H](NC(=O)[C@H](C(C)C)N(C)C(=O)OCc1ccc(NC(=O)[C@H](CCCNC(N)=O)NC(=O)[C@@H](NC(=O)c2cn(CCOCCC(=O)NCCNc3ncc(-c4cc(C)cc(F)c4)c(N4CCC(N)CC4)c3-c3nc4ccc(Cl)cc4[nH]3)nn2)C(C)C)cc1)C(C)C` [Compound 142], the EC50 is 790 nM in assay [1], 0.37 nM in assay [2] and 6.3 nM on SST2.
On the same counts, the results for `CC[C@H](C)[C@@H]([C@@H](CC(=O)N1CCC[C@H]1[C@H](OC)[C@@H](C)C(=O)N[C@H](C)[C@@H](O)c1ccccc1)OC)N(C)C(=O)[C@@H](NC(=O)[C@H](C(C)C)N(C)C(=O)OCc1ccc(NC(=O)[C@H](CCCNC(N)=O)NC(=O)[C@@H](NC(=O)CCOCCOCCOCCOCCC(=O)NCCNc2ncc(-c3cc(C)cc(F)c3)c(N3CCC(N)CC3)c2-c2nc3ccc(Cl)cc3[nH]2)C(C)C)cc1C(=O)N1CC(C(=O)O)C1)C(C)C` [Compound 67] are 85 nM, 0.086 nM and 5.5 nM.
As to `CC[C@H](C)[C@@H]([C@@H](CC(=O)N1CCC[C@H]1[C@H](OC)[C@@H](C)C(=O)N[C@H](C)[C@@H](O)c1ccccc1)OC)N(C)C(=O)[C@@H](NC(=O)[C@H](C(C)C)N(C)C(=O)OCc1ccc(NC(=O)[C@H](CCCNC(N)=O)NC(=O)[C@@H](NC(=O)CCOCCC(=O)NCCNc2ncc(-c3cc(C)cc(F)c3)c(N3CCC(N)CC3)c2-c2nc3cc(Cl)ccc3[nH]2)C(C)C)c(O[C@@H]2O[C@H](C(=O)NCC(=O)O)[C@@H](O)[C@H](O)[C@H]2O)c1)C(C)C` [Compound 44], the results for the EC50 (in assay [1]; in assay [2]; at SST2) were 4.8 nM, 0.085 nM and 4.5 nM, respectively.
On the same counts, the results for `CC[C@H](C)[C@@H]([C@@H](CC(=O)N1CCC[C@H]1[C@H](OC)[C@@H](C)C(=O)N[C@H](C)[C@@H](O)c1ccccc1)OC)N(C)C(=O)[C@@H](NC(=O)[C@H](C(C)C)N(C)C(=O)OCc1ccc(NC(=O)[C@H](CCCNC(N)=O)NC(=O)[C@@H](NC(=O)CCCC(=O)N(C)CC(=O)NCCNc2ncc(-c3cc(C)cc(F)c3)c(N3CCC(N)CC3)c2-c2nc3ccc(Cl)cc3[nH]2)C(C)C)c(O[C@@H]2O[C@H](C(=O)O)[C@@H](O)[C@H](O)[C@H]2O)c1)C(C)C` [Compound 56] are 26 nM, 0.81 nM and 68 nM.
On the same counts, the results for `CC[C@H](C)[C@@H]([C@@H](CC(=O)N1CCC[C@H]1[C@H](OC)[C@@H](C)C(=O)N[C@H](C)[C@@H](O)c1ccccc1)OC)N(C)C(=O)[C@@H](NC(=O)[C@H](C(C)C)N(C)C(=O)OCc1ccc(NC(=O)[C@H](C)NC(=O)[C@@H](NC(=O)CCOCCOCCOCCOCCC(=O)NCCNc2ncc(-c3cc(C)cc(F)c3)c(N3CCC(N)CC3)c2-c2nc3ccc(Cl)cc3[nH]2)C(C)C)cc1C(=O)NCC(=O)O)C(C)C` [Compound 69] are 36 nM, 0.16 nM and 5.6 nM.
The corresponding values for `CC[C@H](C)[C@@H]([C@@H](CC(=O)N1CCC[C@H]1[C@H](OC)[C@@H](C)C(=O)N[C@H](C)[C@@H](O)c1ccccc1)OC)N(C)C(=O)[C@@H](NC(=O)[C@H](C(C)C)N(C)C(=O)OCc1ccc(NC(=O)[C@H](C)NC(=O)[C@@H](NC(=O)CCOCCC(=O)NCCNc2ncc(-c3cc(C)cc(F)c3)c(N3CCC(N)CC3)c2-c2cc3ccc(F)cc3[nH]2)C(C)C)c(O[C@@H]2O[C@H](C(=O)O)[C@@H](O)[C@H](O)[C@H]2O)c1)C(C)C` [Compound 116] are 21 nM, 0.19 nM and 14 nM.
For the molecule `CC[C@H](C)[C@@H]([C@@H](CC(=O)N1CCC[C@H]1[C@H](OC)[C@@H](C)C(=O)N[C@H](C)[C@@H](O)c1ccccc1)OC)N(C)C(=O)[C@@H](NC(=O)[C@H](C(C)C)N(C)C(=O)OCc1ccc(NC(=O)[C@H](C)NC(=O)[C@@H](NC(=O)CCOCCC(=O)N(C)CC(=O)NCCNc2ncc(-c3cc(C)cc(F)c3)c(N3CCC(N)CC3)c2-c2nc3ccc(Cl)cc3[nH]2)C(C)C)c(O[C@@H]2O[C@H](C(=O)O)[C@@H](O)[C@H](O)[C@H]2O)c1)C(C)C` [Compound 134], the EC50 in assay [1] amounted to 1200 nM; in assay [2], 0.11 nM; on SST2 it was 2.1 nM.
Take `CC[C@H](C)[C@@H]([C@@H](CC(=O)N1CCC[C@H]1[C@H](OC)[C@@H](C)C(=O)N[C@H](C)[C@@H](O)c1ccccc1)OC)N(C)C(=O)[C@@H](NC(=O)[C@H](C(C)C)N(C)C(=O)OCc1ccc(NC(=O)[C@H](C)NC(=O)[C@@H](NC(=O)[C@H](CCc2nnn[nH]2)NC(=O)CCOCCC(=O)NCCNc2ncc(-c3cc(C)cc(F)c3)c(N3CCC(N)CC3)c2-c2nc3ccc(Cl)cc3[nH]2)C(C)C)cc1C(=O)NCCN)C(C)C` [Compound 66]: the EC50 in assay [1] is 6.8 nM; in assay [2], 0.14 nM; on SST2 it was 5.6 nM.
The corresponding values for `CC[C@H](C)[C@@H]([C@@H](CC(=O)N1CCC[C@H]1[C@H](OC)[C@@H](C)C(=O)N[C@H](C)[C@@H](O)c1ccccc1)OC)N(C)C(=O)[C@@H](NC(=O)C(C(C)C)N(C)C(=O)OCc1ccc(NC(=O)[C@H](CCCNC(N)=O)NC(=O)[C@@H](NC(=O)CCOCCC(=O)NCCNc2ncc(-c3cc(C)cc(F)c3)c(N3CCC(N)CC3)c2-c2nc3ccc(Cl)cc3[nH]2)C(C)C)c(O[C@@H]2O[C@H](C(=O)N3CC(N)C3)[C@@H](O)[C@H](O)[C@H]2O)c1)C(C)C` (stereo partly drawn) [Compound 232] are 5 nM, 0.15 nM and 5.2 nM.
On the same counts, the results for `CC[C@H](C)[C@@H]([C@@H](CC(=O)N1CCC[C@H]1[C@H](OC)[C@@H](C)C(=O)N[C@H](C)[C@@H](O)c1ccccc1)OC)N(C)C(=O)[C@@H](NC(=O)[C@H](C(C)C)N(C)C(=O)OCc1ccc(NC(=O)[C@H](CCCNC(N)=O)NC(=O)[C@@H](NC(=O)CCOCCOCCOCCOCCC(=O)NCCCNc2ncc(-c3cc(C)cc(F)c3)c(N3CCC(N)CC3)c2-c2nc3ccc(Cl)cc3[nH]2)C(C)C)cc1)C(C)C` [Compound 197] are 12 nM, 0.27 nM and 6.5 nM.
Regarding `CC[C@H](C)[C@@H]([C@@H](CC(=O)N1CCC[C@H]1[C@H](OC)[C@@H](C)C(=O)N[C@H](C)[C@@H](O)c1ccccc1)OC)N(C)C(=O)[C@@H](NC(=O)[C@H](C(C)C)N(C)C(=O)OCc1ccc(NC(=O)[C@H](CCCNC(N)=O)NC(=O)[C@@H](NC(=O)CCOCCC(=O)NCCNc2ncc(-c3cc(C)cc(F)c3)c(N3CCC(N)CC3)c2-c2nc3ccc(Cl)cc3[nH]2)C(C)C)c(OCCO)c1)C(C)C` [Compound 12], the EC50 in assay [1] is 3.9 nM; in assay [2], 0.24 nM; on SST2, 6.9 nM.
The corresponding values for `CC[C@H](C)[C@@H]([C@@H](CC(=O)N1CCC[C@H]1[C@H](OC)[C@@H](C)C(=O)N[C@H](C)[C@@H](O)c1ccccc1)OC)N(C)C(=O)[C@@H](NC(=O)[C@H](C(C)C)N(C)C(=O)OCc1ccc(NC(=O)[C@H](CCCNC(N)=O)NC(=O)[C@@H](NC(=O)CCOCCC(=O)NCCNc2ncc(-c3cc(C)cc(F)c3)c(N3CCC(N)CC3)c2-c2nc3ccc(Cl)cc3[nH]2)C(C)C)c(O[C@H]2[C@H](O)[C@@H](O)[C@H](O)[C@@H](C(=O)N(C)CC(=O)N(C)CC(=O)N(C)CC(=O)O)[C@H]2O)c1)C(C)C` [Compound 236] are 9.9 nM, 0.14 nM and 5.1 nM.
Turning to `CC[C@H](C)[C@@H]([C@@H](CC(=O)N1CCC[C@H]1[C@H](OC)[C@@H](C)C(=O)N[C@H](C)[C@@H](O)c1ccccc1)OC)N(C)C(=O)[C@@H](NC(=O)[C@H](C(C)C)N(C)C(=O)OCc1ccc(NC(=O)[C@H](CCCNC(N)=O)NC(=O)[C@@H](NC(=O)CCOCCC(=O)NCCNc2ncc(-c3cc(C)cc(F)c3)c(N3CCC(N)CC3)c2-c2nc3ccc(Cl)cc3[nH]2)C(C)C)c(O[C@@H]2O[C@H](C(=O)N3CCNCC3)[C@@H](O)[C@H](O)[C@H]2O)c1)C(C)C` [Compound 222], the concentration for a half-maximal effect (EC50) in assay [1] was found to be 1.9 nM; in assay [2] it was 0.11 nM; on SST2 it was 4.3 nM.
The corresponding values for `CC[C@H](C)[C@@H]([C@@H](CC(=O)N1CCCC1[C@H](OC)[C@@H](C)C(=O)N[C@H](C)[C@@H](O)c1ccccc1)OC)N(C)C(=O)[C@@H](NC(=O)[C@H](C(C)C)N(C)C(=O)OCc1ccc(NC(=O)[C@H](CCCNC(N)=O)NC(=O)[C@@H](NC(=O)CCOCCC(=O)N(C)CC(=O)NCCNc2ncc(-c3cc(C)cc(F)c3)c(N3CCC(N)CC3)c2-c2nc3ccc(Cl)cc3[nH]2)C(C)C)c(OC)c1)C(C)C` (stereo partly drawn) [Compound 198] are 32 nM, 0.082 nM and 3.5 nM.
The corresponding values for `CC[C@H](C)[C@@H]([C@@H](CC(=O)N1CCC[C@H]1[C@H](OC)[C@@H](C)C(=O)N[C@H](C)[C@@H](O)c1ccccc1)OC)N(C)C(=O)[C@@H](NC(=O)[C@H](C(C)C)N(C)C(=O)OCc1ccc(NC(=O)[C@H](CCCNC(N)=O)NC(=O)[C@@H](NC(=O)CCOCCC(=O)NCCNc2ncc(-c3cc(C)cc(F)c3)c(N3CCC(N)CC3)c2-c2nc3ccc(Cl)cc3[nH]2)C(C)C)c(O[C@@H]2O[C@H](C(=O)NCCN)[C@@H](O)[C@H](O)[C@H]2O)c1)C(C)C` [Compound 40] are 1.7 nM, 0.2 nM and 8.7 nM.
